Data set [1] deals with Enterococcus faecalis (ATCC29212). Briefly: Microtitre plate assay, IC90 for bacterial growth. The data set is classed as cell-based. Conditions: for IC90 EFA 29212: 90% inhibitory concentration for bacterial growth; for IC90: Enterococcus faecalis, ATCC29212, 90% inhibitory concentration for bacterial growth, read-out: IC90 EFA 29212. How it is done:
(§1) The bacteria used in this study were grown overnight in flasks containing 100 ml Mueller-Hinton Broth (Becton Dickinson—cat. no. 275730) in sterile de-ionized water, with shaking, at 37° C. Stocks (0.5 ml/tube) were stored at 70° C. until use. Bacteria titrations were performed in microtiter plates and colony forming units (CFUs) were determined. In general, an inoculum level of approximately 100 CFUs was used for susceptibility testing.
(§2) Anti bacterial Susceptibility Testing: IC90 Determination
(§3) Flat-bottom, sterile 96-well plastic microtiter plates were filled with 180 μl of sterile deionized water, supplemented with 0.25% BSA. Subsequently, stock solutions (7.8× final test concentration) of compounds were added in 45 μl volumes in column 2. Serial five-fold dilutions (45 μl in 180 μl) were made directly in the microtiter plates from column 2 to reach column 11. Untreated control samples with (column 1) and without (column 12) inoculum were included in each microtiter plate. Depending on the bacteria type, approximately 10 to 60 CFU per well of bacteria inoculum (100 TCID50), in a volume of 100 μl in 2.8× Mueller-Hinton broth medium, was added to the rows A to H, except column 12. The same volume of broth medium without inoculum was added to column 12 in row A to H. The cultures were incubated at 37° C. for 24 hours under a normal atmosphere (incubator with open air valve and continuous ventilation). At the end of incubation, one day after inoculation, the bacterial growth was quantitated fluorometrically. Therefore resazurin (0.6 mg/ml) was added in a volume of 20 μl to all wells 3 hours after inoculation, and the plates were re-incubated overnight. A change in colour from blue to pink indicated the growth of bacteria. The fluorescence was read in a computer-controlled fluorometer (Cytofluor Biosearch) at an excitation wavelength of 530 nm and an emission wavelength of 590 nm. The % growth inhibition achieved by the compounds was calculated according to standard methods. The IC90 (expressed in μg/ml) was defined as the 90% inhibitory concentration for bacterial growth.

In data set [2] the test system is methicilline resistant Staphylococcus aureus (MRSA) (a clinical isolate from the University of Antwerp). Briefly: Microtitre plate assay, IC90 for bacterial growth. Type of data set: cell-based. To be noted: 90% inhibitory concentration for bacterial growth; for IC90: Staphylococcus aureus, MRSA, read-out: IC90 STA RMETHIC. The protocol: as §1, §2, §3
The subject of data set [3] is Staphylococcus aureus (ATCC25923). Briefly: Microtitre plate assay, IC90 for bacterial growth. Type of data set: cell-based. Conditions: for IC90 STA 25923: 90% inhibitory concentration for bacterial growth. The protocol: as §1, §2, §3
Data set [4] concerns Pseudomonas aeruginosa (ATCC27853). Briefly: Microtitre plate assay, IC90 for bacterial growth. Type of data set: cell-based. Conditions: for IC90 PAE 27853: 90% inhibitory concentration for bacterial growth; for IC90: Pseudomonas aeruginosa, ATCC27853, 90% inhibitory concentration for bacterial growth, read-out: IC90 PAE 27853. How it is done: as §1, §2, §3
Data set [5] concerns Listeria monocytogenes (ATCC49594). Briefly: Microtitre plate assay, IC90 for bacterial growth. Type of data set: cell-based. Conditions: for IC90 LMO 49594: 90% inhibitory concentration for bacterial growth; for IC90: Listeria monocytogenes, ATCC49594, 90% inhibitory concentration for bacterial growth, read-out: IC90 LMO 49594. How it is done:
as §1, §2, §3

In data set [6] the test system is Streptococcus pneumoniae (ATCC6305). Briefly: Microtitre plate assay, IC90 for bacterial growth. To be noted: for IC90 SPN 6305: 90% inhibitory concentration for bacterial growth; for IC90: Streptococcus pneumoniae, ATCC6305, 90% inhibitory concentration for bacterial growth, read-out: IC90 SPN 6305. Type of data set: cell-based. How it is done:
as §1, §2, §3

Data set [7] has as its system Streptococcus mutans (ATCC33402). Briefly: Microtitre plate assay, IC90 for bacterial growth. Type of data set: cell-based. Conditions: for IC90 SMU 33402: 90% inhibitory concentration for bacterial growth; for IC90: Streptococcus mutans, ATCC33402, 90% inhibitory concentration for bacterial growth, read-out: IC90 SMU 33402. How it is done: as §1, §2, §3
The subject of data set [8] is Streptococcus pyogens (ATCC8668). Briefly: Microtitre plate assay, IC90 for bacterial growth. Type of data set: cell-based. To be noted: for IC90 SPY 8668: 90% inhibitory concentration for bacterial growth; for IC90: Streptococcus, ATCC8668, 90% inhibitory concentration for bacterial growth, read-out: IC90 SPY 8668. The protocol: as §1, §2, §3
The subject of data set [9] is Staphylococcus aureus (ATCC29213). Briefly: Microtitre plate assay, IC90 for bacterial growth. The data set is classed as cell-based. Conditions: 90% inhibitory concentration for bacterial growth, 24 hours at 37° C., resazurin; for IC90: Staphylococcus aureus, ATCC29213, 24 h, read-out: IC90 STA 29213. The protocol:
as §1, §2, §3
For orientation: Alamar Blue is a resazurin reagent that responds to reducing activity.

Data set [10] deals with Bacillus subtilis (ATCC43639). Briefly: Microtitre plate assay, IC90 for bacterial growth. Type of data set: cell-based. Conditions: for IC90 BSU 43639: 90% inhibitory concentration for bacterial growth. The protocol:
as §1, §2, §3

Values after ≈ are worked out from the molar mass of the structure shown.

Consider seven compounds from patent US8691800B2, “Quinoline derivatives as antibacterial agents” (Janssen Pharmaceutica N.V., priority 2005, dated 2014).

On to `COc1ccc2nc(OC)c(C(c3ccccc3)C3(c4cccc5ccccc45)CCN(C)CO3)cc2c1` (single isomer, unassigned) [Compound 10], for which, in data set [1], the “IC90 EFA 29212” value was found to be 12.7 µg/mL (≈ 25.2 µM). Further, the “IC90 STA RMETHIC” value in data set [2] was found to be 50.5 µg/mL (≈ 100 µM). Also, the “IC90 STA 25923” value in [3] worked out at 12.7 µg/mL (≈ 25.2 µM). Further, the “IC90 PAE 27853” value in [4] came to 12.7 µg/mL (≈ 25.2 µM). Also, in data set [5], the “IC90 LMO 49594” value is 10.1 µg/mL (≈ 20 µM). In data set [6], the “IC90 SPN 6305” value was 1.1 µg/mL (≈ 2.18 µM). In data set [7], the “IC90 SMU 33402” value was determined as 12.7 µg/mL (≈ 25.2 µM). Also, in data set [8], the “IC90 SPY 8668” value is 10.1 µg/mL (≈ 20 µM). In data set [9], the “IC90 STA 29213” value came to 12.7 µg/mL (≈ 25.2 µM). In addition, the “IC90 BSU 43639” value in data set [10] came to 2.5 µg/mL (≈ 4.95 µM).

In general, IC90 refers to the point of the concentration-response curve where the effect stands at 90%. For the compound `COc1nc2ccc(-c3ccco3)cc2cc1C(c1ccccc1)C1(c2cccc3ccccc23)CCN(C)CO1` (single isomer, unassigned) [Compound 12], the “IC90 EFA 29212” value in [1] is 13.6 µg/mL (≈ 25.2 µM). Moreover, the “IC90 STA RMETHIC” value in data set [2] turned out to be 13.6 µg/mL (≈ 25.2 µM). Besides, the “IC90 STA 25923” value in [3] came out at 13.6 µg/mL (≈ 25.2 µM). The “IC90 PAE 27853” value in [4] came to 13.6 µg/mL (≈ 25.2 µM). For the same compound, the figures for the IC90 in [5] and in data set [7] were 13.6 µg/mL (≈ 25.2 µM) and 10.8 µg/mL (≈ 20 µM), respectively. For the same compound, the “IC90 SPN 6305” value in data set [6] is 12.1 µg/mL (≈ 22.4 µM). Further, in [8], the “IC90 SPY 8668” value turned out to be 10.8 µg/mL (≈ 20 µM). Moreover, the “IC90 STA 29213” value in [9] was 13.6 µg/mL (≈ 25.2 µM).

Take `COc1nc2ccc(C)cc2cc1C(c1ccccc1)C1(c2cccc3ccccc23)CCN(C)CO1` (single isomer, unassigned) [Compound 11]: in data set [1], the “IC90 EFA 29212” value was 48.9 µg/mL (≈ 100 µM). Moreover, in data set [2], the “IC90 STA RMETHIC” value came out at 48.9 µg/mL (≈ 100 µM). The “IC90 STA 25923” value in data set [3] is 48.9 µg/mL (≈ 100 µM). Moreover, the “IC90 PAE 27853” value in data set [4] amounted to 48.9 µg/mL (≈ 100 µM). Moreover, the “IC90 LMO 49594” value in data set [5] is 48.9 µg/mL (≈ 100 µM). For the same compound, the “IC90 SPN 6305” value in data set [6] is 4.9 µg/mL (≈ 10 µM). For the same compound, the “IC90 SMU 33402” value in data set [7] came out at 48.9 µg/mL (≈ 100 µM). Besides, the “IC90 SPY 8668” value in data set [8] was 19.5 µg/mL (≈ 39.9 µM). Also, the “IC90 STA 29213” value in data set [9] came to 48.9 µg/mL (≈ 100 µM). The “IC90 BSU 43639” value in [10] was found to be 48.9 µg/mL (≈ 100 µM).

Broadly, the melting point is the temperature, or range, at which the solid turns liquid. The compound `COc1nc2ccc(Br)cc2cc1C(c1ccccc1)C1(c2cccc3ccccc23)CC[N+](C)(C)CO1.[I-]` (single isomer, unassigned) [Compound 17] had a melting point of 245 °C. Besides, the “IC90 EFA 29212” value in data set [1] is 1.8 µg/mL. The “IC90 STA RMETHIC” value in [2] is 2.3 µg/mL. Besides, the “IC90 PAE 27853” value in data set [4] was determined as 2.0 µg/mL. Moreover, in data set [6], the “IC90 SPN 6305” value was 1.8 µg/mL. For the same compound, the “IC90 SPY 8668” value in [8] was determined as 1.8 µg/mL. For the same compound, the “IC90 STA 29213” value in data set [9] was 1.8 µg/mL.

On to `COc1nc2ccc(Br)cc2cc1C(c1ccccc1)C1(c2cccc3ccccc23)CC[N+](C)(C)CO1.[I-]` (single isomer, unassigned) [Compound 18], for which the melting point worked out at 228 °C. Moreover, in data set [1], the IC90 was determined as 1.8 µg/mL. Moreover, the 90% effect concentration (IC90) in [2] came to 2.3 µg/mL. Besides, the IC90 in [4] was determined as 2 µg/mL. Moreover, the 90% effect concentration (IC90) in data set [6] was 1.8 µg/mL. In data set [8], the IC90 stood at 1.8 µg/mL. Further, the IC90 in [9] was 2.3 µg/mL.

In the case of `COc1nc2ccc(C)cc2cc1C(c1ccccc1)C1(c2cccc3ccccc23)CCN(C)CO1` (single isomer, unassigned) [Compound 5], the IC90 in data set [1] was 48.9 µg/mL (≈ 100 µM); in data set [2], 48.9 µg/mL (≈ 100 µM); in data set [3] (Staphylococcus aureus, ATCC25923, 90% inhibitory concentration for bacterial growth, read-out: IC90 STA 25923), 48.9 µg/mL (≈ 100 µM); in data set [4], 48.9 µg/mL (≈ 100 µM); in data set [5], 48.9 µg/mL (≈ 100 µM); in data set [7], 24.5 µg/mL (≈ 50.1 µM). The IC90 in data set [9] is 48.9 µg/mL (≈ 100 µM); in [10] (Bacillus subtilis, ATCC43639, 90% inhibitory concentration for bacterial growth, read-out: IC90 BSU 43639), 48.9 µg/mL (≈ 100 µM). Besides, the “IC90 SPN 6305” value in [6] was found to be 10.9 µg/mL (≈ 22.3 µM). Moreover, the “IC90 SPY 8668” value in [8] is 8.7 µg/mL (≈ 17.8 µM).

Turning to `COc1ccc2nc(OC)c(C(c3ccccc3)C3(c4cccc5ccccc45)CCN(C)CO3)cc2c1` (single isomer, unassigned) [Compound 4], in [1], the “IC90 EFA 29212” value turned out to be 50.5 µg/mL (≈ 100 µM). Moreover, the IC90 in data set [2] was 50.5 µg/mL (≈ 100 µM); in [6] it was 1 µg/mL (≈ 1.98 µM); in data set [7], 20.1 µg/mL (≈ 39.8 µM); in data set [8] it was 20.1 µg/mL (≈ 39.8 µM). For the same compound, the “IC90 STA 25923” value in data set [3] came out at 50.5 µg/mL (≈ 100 µM). The “IC90 PAE 27853” value in [4] came out at 50.5 µg/mL (≈ 100 µM). Also, the “IC90 LMO 49594” value in data set [5] amounted to 25.3 µg/mL (≈ 50.1 µM). Further, the “IC90 STA 29213” value in data set [9] came out at 50.5 µg/mL (≈ 100 µM). In data set [10], the “IC90 BSU 43639” value amounted to 50.5 µg/mL (≈ 100 µM).
